Key:
splenocytes = assay: Tumor antigen-specific IFN-γ production in splenocytes (Trp2, GP100 & Tyr peptides); format: in vivo, mice; settings: two IT doses, day 4, FIG. 13G
Procedure: FIG. 13B provides representative H&E stained images from PBS, CDN2 (20 μg), and exoCDN2 (0.12 μg) treated samples. FIG. 13C is a table showing the number of complete responders by histopathological analysis. […] FIG. 13F is a graphical representation of tumor growth after CD8 T cell depletion in B16F10 tumor bearing mice following administration of the IgG (10 mg/kg) or anti-CD8 antibody (10 mg/kg) intraperitoneally, one day before IT injection (n=5 per group). Blue arrows indicate intraperitoneal injection days (FIG. 13F). […] Data are presented as means±s.e.m.
We next evaluated the capacity of exoSTING to induce systemic, antigen specific T cell responses in the B16F10 tumor model. Several tumor-associated CD8-dependent antigens have been identified as dominant antigens from B16F10 tumor cells (Kreiter et al., Nature 520, 692-696 (2015), which is incorporated by reference herein in its entirety).

[1] = tested on: T cells stimulated with anti-CD3 and anti-CD28; format: cell-based, human; settings: FIG. 17G
Excerpt: (§1) FIGS. 17F and 17G show representative dose-response curves of IFN-β production (FIG. 17F) and cytotoxicity (FIG. 17G) in stimulated T cells after treating with free CDN2 and exoCDN2. T cells were purified from human PBMCs and stimulated with anti-CD3/anti-CD28.
(§2) Next, we characterized the effect of exoSTING for free CDN on naïve or TCR stimulated T cells. We purified T cells and treated them with a dose titration of exoSTING or free CDN and compared IFNβ production in the presence or absence of TCR stimulation. […] We next characterized induction of T cell death using Cytotox dye staining following exoSTING or free CDN2 treatment in T cells stimulated with anti-CD3 and anti-CD28. Following free CDN2 treatment, we observed a dose dependent increase in T cell death (up to ~20% of T cells) as measured by Cytotox dye staining (FIG. 17G). […] Importantly, exoSTING preserves the viability of TCR stimulated T cells.

[2] = tested on: global gene expression in B16F10 tumors; assay: RNA sequencing of B16F10 tumors after 1 or 2 IT injections; format: in vivo, mice; settings: after 2 doses, exoSTING 0.1 μg, free CDN2 20 μg, FIG. 16E
Procedure: FIGS. 16A-16C are box plots showing the relative expression of IFN-β (FIG. 16A), CD274 (FIG. 16B), and CXCL9 (FIG. 16C) as measured by NanoString in RNA samples collected four hours after IT injection of PBS, CDN2 (0.1, 20, or 100 μg), and exoCDN2 (0.001, 0.01, or 0.1 μg) into B16F10 tumors. Data are presented as means±s.e.m. *, P<0.05; **, P<0.01; ***, P<0.001; ****, P<0.0001 by one-way ANOVA with Tukey's multiple comparison test. […] All genes were compared to PBS treatment. […] Adjusted P values are indicated.
To further characterize the immune pathway activation, we evaluated the global gene expression changes after 1 or 2 IT injections of efficacious doses of exoSTING (0.1 μg) and free CDN2 (20 μg) by RNA sequencing. All samples were compared to PBS treatment. […] Tcf7 (which encodes TCF1) is a key transcription factor expressed in the stem-like progenitor CD8^+ T cells (Siddiqui et al., Immunity. 50, 195-211.e10 (2019)). This cell subset is required for response to checkpoint inhibitor therapies. (Siddiqui, 2019). […] This loss may underlie the lack of immunological memory response to free CDN.
In contrast, high doses of free CDN decrease the expression of these key genes as well as reducing the expression of APC markers.

[3] = tested on: T cells stimulated by anti-CD3 and anti-CD28; assay: IFN-β production in T cells stimulated by anti-CD3 and anti-CD28; format: cell-based, human; settings: FIG. 17F
Excerpt: as §1, §2

[4] = CDN in plasma / systemic circulation after IT injection, LC-MS/MS; format: in vivo, C57BL/6 mice
Procedure: (§3) C57BL/6 mice were implanted subcutaneously with 1×10^6 B16F10 cells. FIGS. 14A and […] are graphical representations showing the concentration of CDN2 in tumors (FIG. 14A) and plasma (FIG. 14B) as measured by LC-MS/MS at 5 minutes, 30 minutes, 2 hours, 6 hours, 24 hours, and 48 hours after single IT injection (n=3 per group at each time point) in C57BL/6 mice implanted subcutaneously with 1×10^6 B16F10 cells. FIGS. 14C-14E are graphs showing the relative expression of IFN-β (FIG. 14C), CXCL9 (FIG. 14D), and CXCL10 (FIG. 14E) genes as measured by RT-qPCR, normalized against the housekeeping gene RPS13. FIGS. 14F-14H are graphs showing serum levels of IFN-β (FIG. 14F), TNF-α (FIG. 14G), and IL-6 (FIG. 14H) (n=5 per group). Data are presented as means±s.e.m. *, P<0.05; **, P<0.01; ***, P<0.001; ****, P<0.0001 by one-way ANOVA with Tukey's multiple comparison test.
(§4) A major limitation of IT administration of free CDN is its rapid dissemination into the systemic circulation (see Sivick et al., Cell Rep. 25, 3074-3085.e5 (2018)). […] This reduces the effectiveness of the CDN to elicit a productive immune response in the tumor resulting in higher doses of free CDN required for efficacy. In B16F10 tumors after injection of exoSTING or free CDN, we measured the amount of CDN in tumors and blood over time.
Further, free CDN2 is cleared rapidly in the systemic circulation (106 mL/hr).

B16F10 tumors = assay: Histology of injected B16F10 tumors (H&E, IFN-β mRNA, CD8, F4/80); format: in vivo; settings: free CDN2 20 μg, exoSTING 0.1 μg, 4 and 24 hours after two injections, FIG. 15A
Procedure: In order to distinguish the immune stimulatory versus immune ablative mechanisms of action between free CDN2 and exoSTING, we compared the effects of efficacious doses of free CDN2 (20 μg) or exoSTING (0.1 μg) after IT dosing in a therapeutic setting with the B16F10 model.

B16F10 tumor = assay: B16F10 subcutaneous tumor growth after intratumoral injection; format: in vivo, C57BL/6 mice; settings: 0.1 μg CDN2, IT, FIG. 12F
Procedure: C57BL/6 mice were implanted subcutaneously with 1×10^6 B16F10 cell on right flank of mice. Additional implantation of tumors is specified in each legend. When tumor volumes reached 50-100 mm^3, testing agents were injected intratumorally 3 times with 3 days interval. Red arrows in the graph indicate IT injection days. Tumor growth were measured over time. n=5 per group. […] RLU: Relative Luminescent Unit. ****, P<0.0001 by two-way ANOVA with Tukey's multiple comparison test for tumor growth studies. Data are presented as means±s.e.m. (FIGS. 12D-12F).
Data are presented as means±s.e.m. RLU: Relative Luminescent Unit. […]
We have previously identified and characterized exosome-specific surface glycoproteins using unbiased proteomic analysis and identified the immunoglobulin super family member PTGFRN as a protein that is enriched on human exosomes and contains nine predicted N-linked glycosylation sites (see Dooley et al., Cancer Res. 79(13 Suppl), Abstract nr 2150 (2019), which is incorporated by reference herein in its entirety). […] These populations of exosomes were next examined for their capacity activate STING pathway as measured by IFN-β production. […] EC50 values and maximal IFN-β cytokine production (Cmax) were assessed from multiple donors. […]

[5] = Pharmacokinetics of CDN in injected B16F10 tumors, LC-MS/MS; format: in vivo, C57BL/6 mice; settings: injected tumor
Procedure: as §3, §4

[6] = tested on: CD8+ T cells and XCR1+ DCs in B16F10 tumors; assay: Flow cytometry of B16F10 tumors after two IT injections; format: in vivo, mice; settings: 20 μg, FIG. 15D
Procedure: FIG. 15 is a graphical representation of IFN-β positive area. FIG. 15C is a graphical representation of CD8 positive cells. FIGS. 15D-15E are graphical representations of the percentage of CD8 T cells in live CD45^+ cells in tumors (FIG. 15D) and CD86 expression on dendritic cells (FIG. 15E) as measured by flow cytometry after 2 doses of PBS, CDN2 (20 μg), and exoCDN2 (0.2 μg) into B16F10 tumors (n=5 per group). *, P<0.05; **, P<0.01; ****, P<0.0001 by one-way ANOVA with Tukey's multiple comparison test; n.s., non-significant.
We also assessed CD8^+ T cell and XCR1^+ DC activation after two IT injections of exoSTING and free CDN2 by flow cytometry. […] This increase in CD8^+ T cell is consistent with the increased CXCL9 and CXCL10 production following exoSTING treatment (FIGS. 14D and 14E). […] The enhanced activation of this DC subset seen with exoSTING but to a lesser degree with free CDN, is consistent with the observed superiority of anti-tumor activity of exoSTING in the B16F10 model (FIGS. 12 and 13).

human PBMC = assay: IFN-β production in human PBMC supernatant; format: cell-based; settings: FIG. 12A
Procedure: We compared the activity of co-administered exosomes and free CDN with exoSTING in in vitro PBMC assays.
These populations of exosomes were next examined for their capacity activate STING pathway as measured by IFN-β production. […] These CDN-loaded exosomes were assayed in vitro for their potential to induce IFN-β production in PBMC cultures. EC50 values and maximal IFN-β cytokine production (Cmax) were assessed from multiple donors.

naïve T cells = assay: IFN-β production in naïve T cells; format: cell-based, human
Excerpt: as §2

Compound | increase in the number of IFN-γ positive spots compared to PBS control (splenocytes; 0.2 μg) | IFN-γ positive spots compared to PBS control (splenocytes; 20 μg) | T cell death by Cytotox dye staining (maximum, dose dependent) [1] | Tcf7 levels [2] | EC50 [3] [µM] | detection in the plasma at the 30-minute timepoint ([4]; 30 μg IT) | clearance in the systemic circulation ([4]; free CDN2 after IT injection (30 μg)) [mL/h] | tissue damage by H&E staining (B16F10 tumors) | tumor growth (B16F10 tumor) | AUC ([5]; 0.3 μg single IT) [ng·h/mL] | CL ([5]; 0.3 μg single IT) [mL/h] | Cmax ([5]; 0.3 μg single IT) | T1/2 ([5]; 0.3 μg single IT) [h] | AUC ([5]; 30 μg single IT) | CL ([5]; 30 μg single IT) [mL/h] | Cmax ([5]; 30 μg single IT) | T1/2 ([5]; 30 μg single IT) [h] | number of viable CD8+ T cells compared PBS control [6] | EC50 (human PBMC) [µM] | IFN-β production (naïve T cells)
Nc1ncnc2c1ncn2[C@@H]1O[C@@H]2COP(O)(=S)O[C@@H]3C(O)[C@@H](COP(O)(=S)O[C@H]2[C@H]1O)O[C@H]3n1cnc2c(N)ncnc21 (some centres unmarked) [CDN1, ML RR-S2] | failed to induce IFN-γ positive spots | failed to induce IFN-γ positive spots | – | – | – | – | – | – | – | – | – | – | – | – | – | – | – | – | – | –
Nc1ncnc2c1ncn2[C@@H]1O[C@@H]2COP(O)(=S)O[C@H]3[C@@H](F)[C@H](n4cnc5c(=O)[nH]cnc54)O[C@@H]3COP(O)(=S)O[C@H]2[C@H]1F (some centres unmarked) [CDN2, cAIM(PS)2 Difluor (Rp/Sp)] | – | – | ~ 20 % of T cells | decrease in Tcf7 levels | ~8.2 | detectable in the plasma | 106 | significant evidence of tissue damage in the skin and tumor cell death | Neither free CDN2 (0.1 μg) or co-administered PTGFRN^+/+ exosomes mixed with free CDN2 (0.1 μg) resulted in measurable tumor growth inhibition | 799 | 0.375 | 1,240 ng/mL | 0.620 | 97,300 ng · hr/mL | 0.308 | 13,800 ng/mL | 2.05 | significantly decreased | ~9.7 | no IFN-β production was observed

Source: patent publication US12728098B2, “Methods of producing extracellular vesicles” (LONZA SALES AG, priority 2019, dated 2026)
